Measurements published in publication PMC12317126 (Nature Communications, 2025).

Legend:
[1] = biological target: T1, cystic fibrosis transmembrane conductance regulator (CFTR) (Homo sapiens, UniProt P13569, W401A); assay: inside-out patch-clamp, inhibition kinetics at […]; type: cell-based
T1 construct: C-terminally GFP-fused CFTR in CHO-K1 cells

[2] = biological target: T2, cystic fibrosis transmembrane conductance regulator (CFTR) (Homo sapiens, UniProt P13569); assay: ATP hydrolysis of purified CFTR (kcat […] to […] per minute at […]); inside-out patch-clamp; type: biochemical
T2 construct: WT human CFTR, PKA-phosphorylated
T2 sequence (P13569 whole entry): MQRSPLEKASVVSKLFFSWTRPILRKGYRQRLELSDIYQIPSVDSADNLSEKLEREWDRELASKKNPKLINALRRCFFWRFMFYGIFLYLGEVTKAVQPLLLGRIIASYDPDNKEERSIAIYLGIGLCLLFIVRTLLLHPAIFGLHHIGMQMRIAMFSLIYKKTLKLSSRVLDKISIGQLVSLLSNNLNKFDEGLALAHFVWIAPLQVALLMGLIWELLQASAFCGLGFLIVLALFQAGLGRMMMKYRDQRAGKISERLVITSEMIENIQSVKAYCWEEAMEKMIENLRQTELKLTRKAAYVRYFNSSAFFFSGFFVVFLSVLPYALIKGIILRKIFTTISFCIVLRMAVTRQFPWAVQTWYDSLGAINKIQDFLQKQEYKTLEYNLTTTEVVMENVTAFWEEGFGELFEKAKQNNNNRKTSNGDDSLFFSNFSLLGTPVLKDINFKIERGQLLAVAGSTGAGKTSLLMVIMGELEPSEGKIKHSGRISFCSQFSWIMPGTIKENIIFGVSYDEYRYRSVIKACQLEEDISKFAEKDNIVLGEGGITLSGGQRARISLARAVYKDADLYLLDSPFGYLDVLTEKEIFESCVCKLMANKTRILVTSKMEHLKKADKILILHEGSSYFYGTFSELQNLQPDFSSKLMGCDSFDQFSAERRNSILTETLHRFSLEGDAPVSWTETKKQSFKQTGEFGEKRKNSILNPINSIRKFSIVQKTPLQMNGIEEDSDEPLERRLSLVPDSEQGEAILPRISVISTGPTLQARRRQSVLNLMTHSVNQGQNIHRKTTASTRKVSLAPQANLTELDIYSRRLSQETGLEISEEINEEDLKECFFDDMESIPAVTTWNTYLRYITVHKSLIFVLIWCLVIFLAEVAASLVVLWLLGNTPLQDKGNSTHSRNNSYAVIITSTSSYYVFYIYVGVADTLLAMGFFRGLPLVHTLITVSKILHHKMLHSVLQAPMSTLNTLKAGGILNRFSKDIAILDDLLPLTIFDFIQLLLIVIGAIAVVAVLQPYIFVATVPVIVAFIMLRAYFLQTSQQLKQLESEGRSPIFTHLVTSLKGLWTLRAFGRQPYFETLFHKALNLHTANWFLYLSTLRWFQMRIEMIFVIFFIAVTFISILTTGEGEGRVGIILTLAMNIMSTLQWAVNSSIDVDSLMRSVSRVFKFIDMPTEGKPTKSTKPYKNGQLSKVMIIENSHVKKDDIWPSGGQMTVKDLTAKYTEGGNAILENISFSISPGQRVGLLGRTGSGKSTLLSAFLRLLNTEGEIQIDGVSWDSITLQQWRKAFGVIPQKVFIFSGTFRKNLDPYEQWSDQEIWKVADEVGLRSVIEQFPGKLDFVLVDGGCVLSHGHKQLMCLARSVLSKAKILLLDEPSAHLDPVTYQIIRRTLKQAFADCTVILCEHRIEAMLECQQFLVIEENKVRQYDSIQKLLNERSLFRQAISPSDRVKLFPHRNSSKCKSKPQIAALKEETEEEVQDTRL

T1 sequence (P13569 whole entry W401A, the tested form may be a part): as the sequence (P13569 whole entry) above, with W401A counted along it

inhibition at 10 µM [2] | Structure (SMILES) | inside-out patch-clamp, inhibition kinetics at 10 μM [1]
– | Cn1c(=O)c2c(-c3ccccc3)n3c(c2n(C)c1=O)[C@H](c1ccc(Br)o1)Oc1ccc(C(=O)O)cc1-3 [(R)-BPO-27] | 4.5 ± 0.8 s (t1/2 of inhibition at 10 µM)
72% | O=C(O)c1ccc(/C=C2\SC(=S)N(c3cccc(C(F)(F)F)c3)C2=O)cc1 [CFTRinh-172] | –
